Where “and” joins values, the source holds several entries; their conditions need not be identical. Equal entries are not always repeated.
Columns and labels:
GFP^hi DN3a thymocytes = assay: Cell cycle-restricted GFP^hi DN3a thymocytes in treated H2B-GFP;Lmo2^Tg mice; type: in vivo, mouse
[1] = tested on: DN3a T-cell progenitors of Lmo2^Tg mice; assay: Thymocyte populations (DN3a, DN1-DN4) in the thymus of treated Lmo2^Tg mice; type: in vivo, mouse
Method: The synthesis of Dynole 34-2 and Dyngo 4a compounds was performed as previously described[32],[33] and was kindly provided by A. McCluskey. For in vitro assays, the specific Dynamin inhibitors Dynole 34-2, Dyngo 4a and Dynasore (#S8047, Selleckchem, Sapphire Bioscience Pty Ltd, Redfern NSW, Australia) were made as stock solutions in 100% dimethyl sulfoxide (DMSO), which were stored frozen. These compounds were diluted in 50% v/v DMSO/20 mM Tris-HCl pH 7.4 immediately prior to use. For in vivo administration, Dynole 34-2 was resuspended in pre-warmed HRC#5 (Pharmatek, San Diego CA, USA) 1 : 9 phosphate-buffered saline (PBS) 1× pH 7.4 at 37 °C, and sonicated 10 times for 30 s using a Bioruptor Plus (Biogenode) immediately prior to injection at 30 mg/kg, twice daily.
(§1) Flow cytometry analyses were performed as previously described[10],[86] on single-cell suspensions stained using BD Pharmingen antibodies (BD Australia, North Ryde NSW, Australia) against mouse CD4 (RM4-5), CD8 (53-6.7), CD25 (PC61.5), CD44 (IM7), CD45.1 (A20), CD45.2 (104), Thy1.2 (53-2.1; #561616), TCRβ (H57-597), CD117 (ACK45), CD135 (A2F10.1), CD150 (TC15-12F12.2; #562373), B220 (RA3-6B2; #563708), CD3 (145-2C11; #563004), CD19 (ID3; #557655), Gr-1 (RB6-8C5; #563299 and #565033), CD11b (M1/70; #563015 and #560455), Ter119 (Ter119; #565523 and #557909), Sca-1 (D7; #558160) and an eBioscience antibody (eBioscience, Invitrogen) against mouse NOTCH1 (22E5). DN3 populations and IL-7R were stained using BioLegend antibodies (Australian Biosearch, Balcatta WA, Australia) against mouse CD28 (E18) and CD127 (A7R34), respectively. Apoptosis was measured using an antibody against AnnexinV (#556420, BD Australia) and the […] Sytox Blue (BD Australia) following the manufacturer’s protocol.
All experiments were pre-approved by the AMREP Animal Ethics Committee. The current study was performed by using the previously described CD2-Lmo2 (Lmo2^Tg) mouse model. Mice cohorts were generated by cross-breeding with the Lck-Notch1-IC9 (N1-ICD^Tg)[45] generously given by T. Hoang[86], the Lck-STAT5b-CA (STAT5-CA^Tg)[88] kindly given by M.P. McCormack, the Mx1-Cre transgenic (Mx)[89] and the ROSA26-YFP Cre-reporter (YFP)[90] mouse strains. All mouse lines were backcrossed onto a C57BL/6J background for ten generations and maintained in pathogen-free conditions according to institutional animal care guidelines.

[2] = tested on: pre-LSC self-renewal activity; assay: Fold expansion after transplantation of DN3a thymocytes from treated Lmo2^Tg mice; type: in vivo, mouse; details: recipients of DN3a thymocytes from treated Lmo2^Tg mice; individual animals
Method: Single-cell suspension of murine thymus cells were intravenously injected into sublethally irradiated (650 Rads) isogenic Ly5.1 (Cd45.1) mice. Fold expansion was calculated by dividing the absolute output number of donor-derived DN3a cells harvested at the experimental endpoint by the respective number of DN3a thymocytes injected in each recipient. Limiting dilution transplantations were performed as described, by injecting various doses (10^1 to 10^6) of thymocytes per recipient, and mice were scored positive when T-cell lineage reconstitution assessed 6 weeks after transplantation was >1%. Leukemia-propagating cell frequency was calculated by applying Poisson statistics using the ELDA: Extreme Limiting Dilution Analysis software (Walter and Eliza Hall Institute Bioinformatics, Parkville VIC, Australia)[96]. Limiting dilution transplantations were performed independently from any other transplantation assays, using thymocytes from three different Lmo2^Tg mice for each cohort. Kaplan–Meier survival and statistical analysis were performed using GraphPad Prism. 6.0 software (GraphPad Software Inc, San Diego CA, USA).

Ba/F3-IL7R cells = assay: Survival of IL-7-dependent Ba/F3-IL7R cells; type: cell-based, murine; details: for Survival (%) over DMSO control, reported as 100%: Ba/F3-IL7R cells, replicates
Method: Ba/F3 cells (kindly provided by a person from The Walter and Eliza Hall Institute of Medical Research) were infected with pMIG-R1/Il7r retroviral supernatants produced in 293T cells, and transduced cells were sorted with a BD Influx (BD Australia) and selected by culture in medium supplemented with 5 ng/mL rmIL-7 (#217-17, Pepro Tech, Rocky Hill NJ, USA) for 7 days. Ba/F3 cells stably expressing Il7r (Ba/F3-IL7R) were infected with TxTCPVIR-Stat5-CA retroviral supernatants produced in 293T. Cell sorting was performed with a BD Influx and transduced cells were treated with doxycycline for 48 h to induce the expression of the Stat5-CA-T2A-mCherry fusion protein.
as §1

[3] = thymus of treated Lmo2^Tg mice, absolute numbers vs vehicle (response to reviewers)
[4] = thymus of treated Lmo2^Tg mice, individual mice

SMILES: CCCCCCCCNC(=O)C(C#N)=Cc1cn(CCCN(C)C)c2ccccc12 [Dynole 34-2, 2-Cyano-N-octyl-3-(1-(3-dimethylaminopropyl)-1H-indol-3-yl)-acrylamide]
- proportion of GFP^hi cells in DN3a thymocytes (GFP^hi DN3a thymocytes; H2B-GFP;Lmo2^Tg mice, result in words): did not affect
- % GFPhi cells in DN3a population (GFP^hi DN3a thymocytes; mouse, in vivo): 1.5% and 3.3% and 0.2% and 1.3%
- repopulation activity and leukemogenicity of GFP^hi DN3a thymocytes (GFP^hi DN3a thymocytes; result in words): significantly impaired
- reduction in the numbers of DN3a thymocytes ([1]; Lmo2^Tg mice at end of treatment, vs vehicle, in words): tenfold reduction
- Absolute numbers DN3a cells ([1]; thymus of 6-week-old Lmo2^Tg mice after two rounds of treatment, individual animals (Fig 4a)): 1380000 and 2260000 and 730000 and 1690000 and 1100000
- Absolute numbers DN3a cells ([1]; thymus of 6-week-old Lmo2^Tg mice, 30 mg/kg i.p. twice daily, 5 days on 2 consecutive weeks, individual animals (Fig 3a), 30 mg/kg): 197000 and 290000 and 173000 and 171000 and 222000 and 359000
- decrease in DN3a thymocytes when combined with VXL, as compared to VXL alone ([1]; thymus of treated Lmo2^Tg mice (response to reviewers)): 75%
- decrease in DN1 cells [1, 3]: 56%
- decrease in DN2 cells [1, 3]: 45%
- decrease in DN3a cells [1, 3]: 64%
- increase in DN4 cells [1, 3]: 134%
- Proportion of DN cells (% DN), DN1 [1, 4]: 1.8 % DN and 1.3 % DN and 3.9 % DN and 6.4 % DN and 2.8 % DN
- Proportion of DN cells (% DN), DN2 [1, 4]: 1 % DN and 0.2 % DN and 0.4 % DN and 0.1 % DN and 0.5 % DN
- Proportion of DN cells (% DN), DN3 [1, 4]: 18.3 % DN and 14.1 % DN and 34.4 % DN and 43.5 % DN and 16.6 % DN
- Proportion of DN cells (% DN), DN4 [1, 4]: 79.5 % DN and 84.5 % DN and 61.1 % DN and 49.1 % DN and 80.5 % DN
- Fold expansion DN3a cells [2]: 3.5 fold and 2.36 fold and 9.11 fold and 4.77 fold and 13.12 fold and 6.34 fold and 25.03 fold and 63.73 fold and 32.46 fold
- Survival (%) over DMSO control, reported as 100% (Ba/F3-IL7R cells; +IL-7, Dynole 34-2 0.2 (head prints mM)): 98.98% and 96.19% and 98.31% and 99.95% and 64.95% and 22.36% and 89.89% and 75.78% and 97.73% and 100.16%
- Survival (%) over DMSO control, reported as 100% (Ba/F3-IL7R cells; +IL-7, Dynole 34-2 1.0 (head prints mM)): 96.00% and 88.79% and 100.24% and 102.05% and 16.85% and 13.04% and 78.86% and 82.29% and 101.66% and 91.15%
- Survival (%) over DMSO control, reported as 100% (Ba/F3-IL7R cells; +IL-7, Dynole 34-2 5.0 (head prints mM)): 81.60% and 25.70% and 92.65% and 90.92% and 25.47% and 16.90% and 48.81% and 60.17% and 57.90% and 33.60%
- Survival (%) over DMSO control, reported as 100% (Ba/F3-IL7R cells; +IL-7, Dynole 34-2 10.0 (head prints mM)): 1.62% and 1.82% and 0.05% and 0.27% and 26.62% and 22.03% and 44.15% and 40.27% and 4.53% and 9.16%
- Survival (%) over DMSO control, reported as 100% (Ba/F3-IL7R cells; +IL-7, Dynole 34-2 25.0 (head prints mM)): 1.30% and 1.60% and 0.00% (2×) and 24.81% and 18.62% and 3.40% and 4.14% and 4.55% and 3.04%
- cell death of Ba/F3-IL7R cells (Ba/F3-IL7R cells; result in words): induced cell death in a dose-dependent manner
